Measured values reported in patent US20090011937A1, “Use of Fungicides for Increasing the Quality and Optionally the Quantity of Oil-Plant Products” (priority 2006, published 2009).

How the values were obtained:
Type in all cases: in vivo
[1] = tested on: Oilseed rape; assay: Phosphorus content of oil, oilseed rape treated with metconazole, pressing with normal pressure (DIN EN 14107); settings: oil of rapeseed, Germany 2004/2005; spray autumn and spring, in each case 60 g active ingredient per ha; pressed under normal pressure; untreated 1.9
Procedure: (§1) Oilseed rape was grown in 2004/2005 in Germany under the usual conditions. In autumn 2004 (growth stage BBCH 14-16) and in spring 2005 (growth stage BBCH 31-51), some of the oilseed rape was treated by spraying with metconazole (employed in the form of the commercially available product Caramba®; application rate: in each case 60 g active ingredient per ha). For comparison purposes, the remainder of the oilseed rape remained untreated. The plants were harvested in summer 2005 (growth stage BBCH 92). The rapeseed was pressed with a press from Ökotec under normal pressure (nozzle 8, 40 rpm, temperature at the pressing head 60° C.), and the phosphorus content and the alkaline-earth metal content (Ca, Mg) of the resulting oil were determined in accordance with DIN EN 14107 and DIN EN 14538, respectively.

[2] = tested on: Oilseed rape; assay: Alkaline-earth metal content (Ca, Mg) of oil, oilseed rape treated with metconazole, pressing with normal pressure (DIN EN 14538); settings: oil of rapeseed, Germany 2004/2005; spray autumn and spring, in each case 60 g active ingredient per ha; pressed under normal pressure; untreated 5.7
Procedure: as §1

[3] = tested on: Oilseed rape cv. "Trabant"; assay: Phosphorus content of oil, oilseed rape treated with metconazole or metconazole in combination with boscalid, pressing at high pressure (DIN EN 14107); settings: oil of rapeseed cv. Trabant, Bothkamp 2005/2006; metconazole 60 g/ha autumn and spring, boscalid 250 g/ha at anthesis; pressed under high pressure; untreated 5.0
Procedure: Oilseed rape cv. “Trabant” was grown under the usual conditions in 2005/2006 in Germany at the Bothkamp site. In autumn 2005 (growth stage BBCH 16-18) and in spring 2006 (BBCH 31-51), some of the oilseed rape plants were treated by spraying with metconazole (employed in the form of the commercially available product Caramba®; application rate: in each case 60 g active ingredient per ha). Some other oilseed rape plants were furthermore additionally treated during anthesis (BBCH 65) by spraying with boscalid (employed in the form of the commercially available product Cantus®; application rate: 250 g active substance per ha). For comparison reasons, some of the rapeseed plants remained untreated. The plants were harvested in summer 2006 (growth stage BBCH 92). The rapeseed was pressed with a press from Ökotec under high pressure (nozzle 6, 70 rpm, temperature at the pressing head >70° C.), and the phosphorus content of the resulting oil was determined in accordance with DIN EN 14107.

[4] = tested on: Oilseed rape cv. "Trabant"; assay: Alkaline-earth metal content of oil, oilseed rape treated with metconazole, pressing with normal pressure and high pressure (DIN EN 14538)
Procedure: Oilseed rape cv. “Trabant” was grown under the usual conditions in 2005/2006 in Germany at the Bothkamp site. In autumn 2005 (growth stage BBCH 16-18) and in spring 2006 (BBCH 31-51), some of the oilseed rape plants were treated by spraying with metconazole (employed in the form of the commercially available product Caramba®; application rate: in each case 60 g active ingredient per ha). For comparison reasons, the remainder of the rapeseed plants remained untreated. The plants were harvested in summer 2006 (growth stage BBCH 92). The rapeseed was pressed with a press from Ökotec and the alkaline-earth metal content (Ca, Mg) of the resulting oil was determined as specified in DIN EN 14538. Here, part of the rapeseed was pressed under normal pressure (nozzle 8, 40 rpm, temperature at the pressing head 60° C.) and another portion under high pressure (nozzle 6, 70 rpm, temperature at the pressing head >70° C.).

[5] = tested on: Oilseed rape cv. "Lioness"; assay: Overall contamination of oil from treated oilseed rape (DIN EN 12662); settings: oil of rapeseed cv. Lioness, Britain 2005/2006; spray during anthesis (BBCH 61-65); normal pressure; untreated 33
Procedure: Oilseed rape cv. “Lioness” was grown in 2005/2006 in Britain under the normal conditions. During anthesis (growth stage BBCH 61-65), the rapeseed plants were treated by spraying either with boscalid (employed in the form of the commercially available product Cantus®; application rate: 250 g active substance per ha), with boscalid in combination with dimoxystrobin (employed in the form of the commercially available product Pictor®; application rate: in each case 100 g active substance per ha), with prothioconazole (employed in the form of the commercially available product Proline®; application rate: 175 g active substance per ha) or with azoxystrobin (employed in the form of the commercially available product Amistar®; application rate: 200 g active substance per ha). For comparison reasons, some of the rapeseed plants remained untreated. The plants were harvested in summer 2006 (BBCH 92). The rapeseed was pressed with a press from Ökotec under normal pressure (nozzle 8, 40 rpm, temperature at the pressing head 60° C.), and the overall contamination of the oil obtained was determined as specified in DIN EN 12662.

[6] = tested on: Oilseed rape cv. "Lioness"; assay: Sulfur content of oil from treated oilseed rape (EN ISO 20884); settings: oil of rapeseed cv. Lioness, Britain 2005/2006; spray during anthesis; normal pressure; untreated 4
Procedure: Oilseed rape cv. “Lioness” was grown in 2005/2006 in Britain under the normal conditions. During anthesis (growth stage BBCH 61-65), the rapeseed plants were treated by spraying either with boscalid (employed in the form of the commercially available product Cantus®; application rate: 250 g active substance per ha), with boscalid in combination with dimoxystrobin (employed in the form of the commercially available product Pictor®; application rate: in each case 100 g active substance per ha), with prothioconazole (employed in the form of the commercially available product Proline®; application rate: 175 g active substance per ha) or with azoxystrobin (employed in the form of the commercially available product Amistar®; application rate: 200 g active substance per ha). For comparison reasons, some of the rapeseed plants remained untreated. The plants were harvested in summer 2006 (BBCH 92). The rapeseed was pressed with a press from Ökotec under normal pressure (nozzle 8, 40 rpm, temperature at the pressing head 60° C.), and the sulfur content of the oil obtained was determined as specified in EN ISO 20884.

[7] = tested on: Oilseed rape cv. "Talent"; assay: Resistance to oxidation of oil, oilseed rape treated with boscalid or boscalid in combination with dimoxystrobin (DIN EN 14112); settings: oil of rapeseed cv. Talent, Tachenhausen 2005/2006; spray during anthesis; normal pressure; untreated 9.5
Procedure: Oilseed rape cv. “Talent” was grown in 2005/2006 under the usual conditions at the Tachenhausen site in Germany. During anthesis (growth stage BBCH 61-65), the oilseed rape plants were treated by spraying either with boscalid (employed in the form of the commercially available product Cantus®; application rate: 250 g active substance per ha) or with boscalid in combination with dimoxystrobin (employed in the form of the commercially available product Pictor®; application rate: in each case 100 g active ingredient per ha). For comparison reasons, some of the oilseed rape plants remained untreated. The plants were harvested in summer 2006 (BBCH 92). The rapeseed was pressed with a press from Ökotec under normal pressure (nozzle 8, 40 rpm, temperature at the pressing head 60° C.), and the resistance to oxidation of the oil obtained was determined as specified in DIN EN 14112.

[8] = tested on: Oilseed rape cv. "Lioness"; assay: Acid content of oil, oilseed rape treated with boscalid or boscalid in combination with dimoxystrobin (DIN EN 14104); settings: oil of rapeseed cv. Lioness, Britain 2005/2006; spray during anthesis; normal pressure; untreated 0.41
Procedure: Oilseed rape cv. “Lioness” was grown in 2005/2006 in Britain under the normal conditions. During anthesis (growth stage BBCH 61-65), the rapeseed plants were treated by spraying either with boscalid (employed in the form of the commercially available product Cantus®; application rate: 250 g active substance per ha) or with boscalid in combination with dimoxystrobin (employed in the form of the commercially available product Pictor®; application rate: in each case 100 g active substance per ha). For comparison reasons, some of the rapeseed plants remained untreated. The plants were harvested in summer 2006 (BBCH 92). The rapeseed was pressed with a press from Ökotec under normal pressure (nozzle 8, 40 rpm, temperature at the pressing head 60° C.), and the acid content of the oil obtained was determined as specified in DIN EN 14104.

[9] = tested on: Oilseed rape cv. "Talent"; assay: Iodine number of oil, oilseed rape treated with boscalid (EN 14111); settings: oil of rapeseed cv. Talent, Tachenhausen 2005/2006; boscalid 250 g/ha during anthesis; normal pressure; untreated 108
Procedure: Oilseed rape cv. “Talent” was grown in 2005/2006 under the usual conditions at the Tachenhausen site in Germany. During anthesis (growth stage BBCH 61-65), the oilseed rape plants were treated by spraying with boscalid (employed in the form of the commercially available product Cantus®; application rate: 250 g active substance per ha). For comparison reasons, some of the oilseed rape plants remained untreated. The plants were harvested in summer 2006 (BBCH 92). The rapeseed was pressed with a press from Ökotec under normal pressure (nozzle 8, 40 rpm, temperature at the pressing head 60° C.), and the iodine number of the oil obtained was determined as specified in EN 14111.

In the case of CC1(C)CCC(Cc2ccc(Cl)cc2)C1(O)Cn1cncn1 (stereo not drawn) [2 × metconazole, metconazole], the Phosphorus content [1] is reported as <1 mg/kg, the “Alkaline-earth metal content (Ca + Mg)” value [2] is reported as 3.9 mg/kg and the Phosphorus content [3] is reported as 4.0 mg/kg. For the same molecule, the “Brittleness of the seed coat” value ([4]; inferred from the more pronounced reduction of alkaline-earth metal content in high-pressure oil versus normal-pressure oil) was “appears to reduce the brittleness of the seed coat”, the “Alkaline-earth metal content (Ca + Mg) - high pressure” value ([4]; oil of rapeseed cv. Trabant, Bothkamp 2005/2006, metconazole 60 g/ha autumn and spring, high pressure (nozzle 6, 70 rpm, >70° C.), untreated 9) was 5 mg/kg and the “Alkaline-earth metal content (Ca + Mg) - normal pressure” value ([4]; oil of rapeseed cv. Trabant, Bothkamp 2005/2006, metconazole 60 g/ha autumn and spring, normal pressure (nozzle 8, 40 rpm, 60° C.), untreated 6) was 4 mg/kg.

Work on CO/C=C(/C(=O)OC)c1ccccc1Oc1cc(Oc2ccccc2C#N)ncn1 [Azoxystrobin, azoxystrobin] yielded an Overall contamination [5] of 24 mg/kg and a Sulfur content [6] of 2 mg/kg.

With OC(Cc1ccccc1Cl)(Cn1nc[nH]c1=S)C1(Cl)CC1 (stereo not drawn) [Prothioconazole, prothioconazole] the Overall contamination [5] was 22 mg/kg and the Sulfur content [6] was 2 mg/kg.

For O=C(Nc1ccccc1-c1ccc(Cl)cc1)c1cccnc1Cl [Boscalid, boscalid], the Overall contamination [5] was 20 mg/kg, the “Resistance to oxidation at 110° C.” value [7] was 9.7 h and the Acid number [8] was 0.32 mg KOH/g. It also gave an Iodine number [9] of 105 g iodine per 100 g and a Sulfur content [6] of 2 mg/kg.
